Test results as given in patent publication US10745396B2, “Pesticidally active polycyclic derivatives with sulfur containing substituents” (Syngenta Participations AG, priority 2015, dated 2020).

Columns and labels:
Type in all cases: in vivo
[1] = tested on: Spodoptera littoralis (Egyptian Cotton Leaf Worm); experiment: Spodoptera littoralis, cotton leaf discs, L1 larvae; details: foliar, 72 h, application rate of 200 ppm, 3 days after infestation
Experimental: Example B8: Spodoptera littoralis (Egyptian Cotton Leaf Worm)
Cotton leaf discs were placed onto agar in 24-well microtiter plates and sprayed with aqueous test solutions prepared from 10′000 ppm DMSO stock solutions. After drying the leaf discs were infested with five L1 larvae. The samples were assessed for mortality, anti-feeding effect, and growth inhibition in comparison to untreated samples 3 days after infestation. Control of Spodoptera littoralis by a test sample is given when at least one of the categories mortality, anti-feedant effect, and growth inhibition is higher than the untreated sample.

[2] = tested on: Spodoptera littoralis (Egyptian Cotton Leaf Worm); experiment: Spodoptera littoralis, uptake by lettuce roots from agar, eggs; details: 144 h, test rate of 12.5 ppm, 6 days after infestation, read-out: effect in at least one of the three categories (mortality, anti-feeding, or growth inhibition)
Excerpt: Example B9: Spodoptera littoralis (Egyptian Cotton Leaf Worm)
Test compounds were applied by pipette from 10′000 ppm DMSO stock solutions into 24-well plates and mixed with agar. Lettuce seeds were placed onto the agar and the multi well plate was closed by another plate which contained also agar. After 7 days the compound was absorbed by the roots and the lettuce grew into the lid plate. The lettuce leaves were then cut off into the lid plate. Spodoptera eggs were pipetted through a plastic stencil onto a humid gel blotting paper and the lid plate was closed with it. The samples were assessed for mortality, anti-feedant effect and growth inhibition in comparison to untreated samples 6 days after infestation.

[3] = tested on: Frankliniella occidentalis (Western Flower Thrips); experiment: Frankliniella occidentalis feeding/contact activity, sunflower leaf discs; details: foliar, 168 h, application rate of 200 ppm, 7 days after infestation, population of mixed ages
Experimental: Example B4: Frankliniella occidentalis (Western Flower Thrips): Feeding/Contact Activity
(§1) Sunflower leaf discs were placed on agar in 24-well microtiter plates and sprayed with aqueous test solutions prepared from 10′000 DMSO stock solutions. After drying the leaf discs were infested with a Frankliniella population of mixed ages. The samples were assessed for mortality 7 days after infestation.

[4] = tested on: Myzus persicae (Green Peach Aphid); experiment: Myzus persicae feeding/contact activity, sunflower leaf discs; details: foliar, 144 h, application rate of 200 ppm, 6 days after infestation
Experimental: Example B5: Myzus persicae (Green Peach Aphid): Feeding/Contact Activity
Sunflower leaf discs were placed onto agar in a 24-well microtiter plate and sprayed with aqueous test solutions prepared from 10′000 ppm DMSO stock solutions. After drying, the leaf discs were infested with an aphid population of mixed ages. The samples were assessed for mortality 6 days after infestation.

[5] = tested on: Plutella xylostella (Diamond Back Moth); experiment: Plutella xylostella, artificial diet, L2 larvae; details: 120 h, application rate of 200 ppm, 5 days after infestation, read-out: effect in at least one of the two categories (mortality or growth inhibition)
Experimental: Example B7: Plutella xylostella (Diamond Back Moth)
(§2) 24-well microtiter plates with artificial diet were treated with aqueous test solutions prepared from 10′000 ppm DMSO stock solutions by pipetting. After drying, the plates were infested with L2 larvae (10 to 15 per well). The samples were assessed for mortality and growth inhibition in comparison to untreated samples 5 days after infestation.

[6] = tested on: Diabrotica balteata (Corn Root Worm); experiment: Diabrotica balteata, maize sprouts on agar, L2 larvae; details: 96 h, application rate of 200 ppm, 4 days after infestation, read-out: effect in at least one of the two categories (mortality or growth inhibition)
Experimental: Example B2: Diabrotica balteata (Corn Root Worm)
as §2, with “Maize sprouts placed onto an agar layer in 24-well” for “24-well”, “plates” for “plates with artificial diet”, “spraying.” for “pipetting.”, “(6” for “(10”, “10” for “15”, “4” for “5”

[7] = tested on: Euschistus heros (Neotropical Brown Stink Bug); experiment: Euschistus heros, soybean leaves on agar, N2 nymphs; details: 120 h, application rate of 200 ppm, 5 days after infestation, read-out: effect in at least one of the two categories (mortality or growth inhibition)
Experimental: Example B3: Euschistus heros (Neotropical Brown Stink Bug)
Soybean leaves on agar in 24-well microtiter plates were sprayed with aqueous test solutions prepared from 10′000 ppm DMSO stock solutions. After drying the leaves were infested with N2 nymphs. The samples were assessed for mortality and growth inhibition in comparison to untreated samples 5 days after infestation.

[8] = tested on: Bemisia tabaci (Cotton White Fly); experiment: Bemisia tabaci feeding/contact activity, cotton leaf discs; details: foliar, 144 h, application rate of 200 ppm, 6 days after incubation, adult white flies
Experimental: Example B1: Bemisia tabaci (Cotton White Fly): Feeding/Contact Activity
Cotton leaf discs were placed on agar in 24-well microtiter plates and sprayed with aqueous test solutions prepared from 10′000 ppm DMSO stock solutions. After drying the leaf discs were infested with adult white flies. The samples were checked for mortality 6 days after incubation.

[9] = tested on: Thrips tabaci (Onion Thrips); experiment: Thrips tabaci feeding/contact activity, sunflower leaf discs; details: foliar, 144 h, application rate of 200 ppm, 6 days after infestation
Experimental: Example B11: Thrips tabaci (Onion Thrips) Feeding/Contact Activity
as §1, with “10′000 ppm” for “10′000”, “thrips” for “Frankliniella”, “6” for “7”

[10] = tested on: Tetranychus urticae (Two-Spotted Spider Mite); experiment: Tetranychus urticae feeding/contact activity, bean leaf discs; details: foliar, 192 h
Experimental: Example B10: Tetranychus urticae (Two-Spotted Spider Mite): Feeding/Contact Activity
Bean leaf discs on agar in 24-well microtiter plates were sprayed with aqueous test solutions prepared from 10′000 ppm DMSO stock solutions. After drying the leaf discs were infested with a mite population of mixed ages. The samples were assessed for mortality on mixed population (mobile stages) 8 days after infestation.

[11] = tested on: Myzus persicae (Green Peach Aphid); experiment: Myzus persicae systemic activity, pea seedling roots in test solution; details: 144 h, test rate of 24 ppm, 6 days after placing seedlings into test solutions
Experimental: Example B6: Myzus persicae (Green Peach Aphid): Systemic Activity
Roots of pea seedlings infested with an aphid population of mixed ages were placed directly into aqueous test solutions prepared from 10′000 DMSO stock solutions. The samples were assessed for mortality 6 days after placing seedlings into test solutions.

CCn1c(C(F)(F)F)cc2nc(-c3nc(-c4cnc(OC)nc4)ccc3S(=O)(=O)CC)n(C)c2c1=O [Compound P20]
≥ 80%: percent control (mortality, anti-feedant effect or growth inhibition) at 200 ppm [1] | percent effect (mortality, anti-feeding or growth inhibition) at 12.5 ppm [2] | mortality at 200 ppm [3] | mortality at 200 ppm [4] | percent effect (mortality or growth inhibition) at 200 ppm [5] | percent effect (mortality or growth inhibition) at 200 ppm [6] | percent effect (mortality or growth inhibition) at 200 ppm [7]

CCS(=O)(=O)c1ccc(-n2cncn2)nc1-c1nc2cc(C(F)(F)F)n(C3CC3)c(=O)c2n1C [Compound P4, 5-cyclopropyl-2-[3-ethylsulfonyl-6-(1,2,4-triazol-1-yl)-2-pyridyl]-3-methyl-6-(trifluoromethyl)imidazo[4,5-c]pyridin-4-one]
≥ 80%: mortality at 200 ppm [8] | percent control (mortality, anti-feedant effect or growth inhibition) at 200 ppm [1] | mortality at 200 ppm [9] | mortality at 200 ppm [10] | percent effect (mortality, anti-feeding or growth inhibition) at 12.5 ppm [2] | mortality at 24 ppm [11] | mortality at 200 ppm [4] | percent effect (mortality or growth inhibition) at 200 ppm [5] | percent effect (mortality or growth inhibition) at 200 ppm [6] | percent effect (mortality or growth inhibition) at 200 ppm [7]

CCn1c(C(F)(F)F)cc2nc(-c3nc(-c4ccncc4)ccc3S(=O)(=O)CC)n(C)c2c1=O [Compound P13]
≥ 80%: percent control (mortality, anti-feedant effect or growth inhibition) at 200 ppm [1] | mortality at 200 ppm [3] | percent effect (mortality or growth inhibition) at 200 ppm [5] | percent effect (mortality or growth inhibition) at 200 ppm [6]

CCn1c(C(F)(F)F)cc2nc(-c3nc(-c4cccc(SC)c4)ccc3S(=O)(=O)CC)n(C)c2c1=O [Compound P29]
≥ 80%: mortality at 200 ppm [8] | percent control (mortality, anti-feedant effect or growth inhibition) at 200 ppm [1] | mortality at 200 ppm [4] | percent effect (mortality or growth inhibition) at 200 ppm [5] | percent effect (mortality or growth inhibition) at 200 ppm [6] | percent effect (mortality or growth inhibition) at 200 ppm [7]

CCn1c(C(F)(F)F)cc2nc(-c3nc(-c4cnco4)ccc3S(=O)(=O)CC)n(C)c2c1=O [Compound P38]
≥ 80%: percent control (mortality, anti-feedant effect or growth inhibition) at 200 ppm [1] | mortality at 24 ppm [11] | mortality at 200 ppm [4] | percent effect (mortality or growth inhibition) at 200 ppm [5] | percent effect (mortality or growth inhibition) at 200 ppm [6]

CCn1c(C(F)(F)F)cc2nc(-c3nc(-c4cncnc4)ccc3S(=O)(=O)CC)n(C)c2c1=O [Compound P21]
≥ 80%: mortality at 200 ppm [8] | percent control (mortality, anti-feedant effect or growth inhibition) at 200 ppm [1] | percent effect (mortality, anti-feeding or growth inhibition) at 12.5 ppm [2] | mortality at 200 ppm [4] | percent effect (mortality or growth inhibition) at 200 ppm [5] | percent effect (mortality or growth inhibition) at 200 ppm [6] | percent effect (mortality or growth inhibition) at 200 ppm [7]

CCn1c(C(F)(F)F)cc2nc(-c3nc(-n4cncn4)ccc3S(=O)(=O)CC)n(C)c2c1=O [Compound P5]
≥ 80%: mortality at 200 ppm [8] | percent control (mortality, anti-feedant effect or growth inhibition) at 200 ppm [1] | mortality at 200 ppm [9] | percent effect (mortality, anti-feeding or growth inhibition) at 12.5 ppm [2] | mortality at 24 ppm [11] | mortality at 200 ppm [4] | percent effect (mortality or growth inhibition) at 200 ppm [5] | percent effect (mortality or growth inhibition) at 200 ppm [6] | percent effect (mortality or growth inhibition) at 200 ppm [7]

CCn1c(C(F)(F)F)cc2nc(-c3nc(-c4cccc(F)c4)ccc3S(=O)(=O)CC)n(C)c2c1=O [Compound P14]
≥ 80%: mortality at 200 ppm [8] | percent control (mortality, anti-feedant effect or growth inhibition) at 200 ppm [1] | percent effect (mortality, anti-feeding or growth inhibition) at 12.5 ppm [2] | mortality at 200 ppm [4] | percent effect (mortality or growth inhibition) at 200 ppm [5] | percent effect (mortality or growth inhibition) at 200 ppm [6] | percent effect (mortality or growth inhibition) at 200 ppm [7]

CCn1c(C(F)(F)F)cc2nc(-c3nc(-n4ccc(C(F)(F)F)n4)ccc3S(=O)(=O)CC)n(C)c2c1=O [Compound P3, 5-ethyl-2-[3-ethylsulfonyl-6-[3-(trifluoromethyl)pyrazol-1-yl]-2-pyridyl]-3-methyl-6-(trifluoromethyl)imidazo[4,5-c]pyridin-4-one]
≥ 80%: mortality at 200 ppm [8] | percent control (mortality, anti-feedant effect or growth inhibition) at 200 ppm [1] | percent effect (mortality or growth inhibition) at 200 ppm [5] | percent effect (mortality or growth inhibition) at 200 ppm [6] | percent effect (mortality or growth inhibition) at 200 ppm [7]

CCn1c(C(F)(F)F)cc2nc(-c3nc(-c4ccc(C(F)(F)F)nc4)ccc3S(=O)(=O)CC)n(C)c2c1=O [Compound P16]
≥ 80%: mortality at 200 ppm [8] | percent control (mortality, anti-feedant effect or growth inhibition) at 200 ppm [1] | mortality at 200 ppm [3] | mortality at 200 ppm [4] | percent effect (mortality or growth inhibition) at 200 ppm [5] | percent effect (mortality or growth inhibition) at 200 ppm [6] | percent effect (mortality or growth inhibition) at 200 ppm [7]

CCn1c(C(F)(F)F)cc2nc(-c3nc(-c4cc(F)ccc4F)ccc3S(=O)(=O)CC)n(C)c2c1=O [Compound P37]
≥ 80%: mortality at 200 ppm [8] | percent control (mortality, anti-feedant effect or growth inhibition) at 200 ppm [1] | percent effect (mortality, anti-feeding or growth inhibition) at 12.5 ppm [2] | percent effect (mortality or growth inhibition) at 200 ppm [5] | percent effect (mortality or growth inhibition) at 200 ppm [6] | percent effect (mortality or growth inhibition) at 200 ppm [7]

CCn1c(C(F)(F)F)cc2nc(-c3nc(-c4cncn4C)ccc3S(=O)(=O)CC)n(C)c2c1=O [Compound P28]
≥ 80%: mortality at 200 ppm [8] | percent control (mortality, anti-feedant effect or growth inhibition) at 200 ppm [1] | percent effect (mortality or growth inhibition) at 200 ppm [5] | percent effect (mortality or growth inhibition) at 200 ppm [6]

CCn1c(C(F)(F)F)cc2nc(-c3nc(C4CC4)ccc3S(=O)(=O)CC)n(C)c2c1=O [Compound P11]
≥ 80%: mortality at 200 ppm [8]
